{"source": "patent EP4389751A1", "about": "“HETEROCYCLIC COMPOUNDS AND USES THEREOF” (Kumquat Biosciences Inc., priority 2021, dated 2024)", "key": {"GP2D cells": {"tested_on": "GP2D cells", "assay": "Cell proliferation assay (CellTiter-Glo), K-Ras G12D cells", "format": "cell-based", "conditions": "GP2D cells (K-Ras G12D); read-out: Inhibition of GP2D Cells (IC50)", "in_short": "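GP2D (K-Ras G12D) cells seeded in DMEM with 2 mM glutamine and 10% FBS, then dosed next day with a dilution series (e.g., 9-point 3-fold). Viability read by CellTiter-Glo luminescence after about 5 days. IC50 from four-parameter fit.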"}, "K-Ras G12S": {"target": "T1, K-Ras G12S (Homo sapiens, UniProt P01116, G12S)", "T1 construct": "made in house; host or cells: E. coli (e.g., BL21 (DE3))", "assay": "HTRF assay of the K-Ras / SOS1 interaction", "format": "biochemical", "conditions": "IC50 (against K-Ras G12D) to IC50 (against K-Ras G12S)", "in_short": "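GST-K-Ras G12S with anti-GST-Eu donor and His-hSOS1 with anti-6His-XL665 acceptor in ~5 mM HEPES pH 7.4, ~150 mM NaCl, 1 mM DTT, 0.05% BSA, 0.0025% Igepal. Read after ~10 min or longer; IC50 from 665/620 nm ratio, duplicates at 10 µM down to 0.01 µM.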"}, "[1]": {"target": "T2, KRAS protein (His-tagged GDP-loaded G12S 1-169) (Homo sapiens, UniProt P01116, G12S)", "T2 construct": "His-tagged GDP-loaded G12S 1-169", "assay": "Covalent modification of KRAS protein, intact-protein LC-MS", "format": "binding", "conditions": "24hrs at room temperature, KRAS protein ~2 µM", "in_short": "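His-tagged GDP-loaded KRAS 1-169 (~2 µM) incubated with compound 24 h at room temperature, then quenched with formic acid. Intact-protein LC-ESI-MS on C4 column; deconvoluted peak intensities of unmodified and adducted protein give percent covalent modification.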"}}}
{"smiles": "N#Cc1c(N)sc2c(F)ccc(-c3c(Cl)cc4c(N5CCCC6(CCN(C(=O)n7cncn7)C6)C5)nc(OC[C@@]56CCCN5C[C@H](F)C6)nc4c3F)c12", "note": "(stereo partly drawn) [Compound A269, 4-(4-(2-(1H-1,2,4-triazole-1-carbonyl)-2,7-diazaspiro[4.5]decan-7-yl)-6-chloro-8-fluoro-2-(((2R,7aS)-2-fluorotetrahydro-1H-pyrrolizin-7a(5H)-yl)methoxy)quinazolin-7-yl)-2-amino-7-fluorobenzo[b]thiophene-3-carbonitrile]", "values": [{"measurement": "IC50", "setting": "GP2D cells", "value": "1000 to 10000", "unit": "nM"}, {"measurement": "Ratio of IC50 KRAS G12D vs. IC50 KRAS G12S", "setting": "K-Ras G12S", "value": "A (A: indicates that the ratio of IC50 against KrasG12D vs. IC50 against KrasG12S is 1-fold or greater)"}, {"measurement": "% G12S Modification at 24 hr.", "setting": "[1]", "value": "++ (++ indicates between about 1%- 20% labelling)"}]}
{"smiles": "N#Cc1cnn(C(=O)N2CCN(c3nc(OC[C@@]45CCCN4C[C@H](F)C5)nc4c(F)c(-c5ccc(F)c6sc(N)nc56)c(Cl)cc34)CC2)c1", "note": "[Compound A252, 1-(4-(7-(2-amino-7-fluorobenzo[d]thiazol-4-yl)-6-chloro-8-fluoro-2-(((2R,7aS)-2-fluorotetrahydro-1H-pyrrolizin-7a(5H)-yl)methoxy)quinazolin-4-yl)piperazine-1-carbonyl)-1H-pyrazole-4-carbonitrile]", "values": [{"measurement": "IC50", "setting": "GP2D cells", "value": "1000 to 10000", "unit": "nM"}, {"measurement": "Ratio of IC50 KRAS G12D vs. IC50 KRAS G12S", "setting": "K-Ras G12S", "value": "A (A: indicates that the ratio of IC50 against KrasG12D vs. IC50 against KrasG12S is 1-fold or greater)"}, {"measurement": "% G12S Modification at 24 hr.", "setting": "[1]", "value": "+++ (+++ indicates greater than 20% labelling)"}]}
{"smiles": "N#Cc1c(N)sc2c(F)ccc(-c3c(Cl)cc4c(N5CCOC6(CN(C(=O)n7cncn7)C6)C5)nc(OC[C@@]56CCCN5C[C@H](F)C6)nc4c3F)c12", "note": "[Compound A132, 4-(4-(2-(1H-1,2,4-triazole-1-carbonyl)-5-oxa-2,8-diazaspiro[3.5]nonan-8-yl)-6-chloro-8-fluoro-2-(((2R,7aS)-2-fluorotetrahydro-1H-pyrrolizin-7a(5H)-yl)methoxy)quinazolin-7-yl)-2-amino-7-fluorobenzo[b]thiophene-3-carbonitrile]", "values": [{"measurement": "IC50", "setting": "GP2D cells", "value": "1000 to 10000", "unit": "nM"}, {"measurement": "Ratio of IC50 KRAS G12D vs. IC50 KRAS G12S", "setting": "K-Ras G12S", "value": "A (A: indicates that the ratio of IC50 against KrasG12D vs. IC50 against KrasG12S is 1-fold or greater)"}, {"measurement": "% G12S Modification at 24 hr.", "setting": "[1]", "value": "+++ (+++ indicates greater than 20% labelling)"}]}
{"smiles": "N#Cc1c(N)sc2c(F)ccc(-c3c(Cl)cc4c(N5CC6(CCCN(C(=O)n7cncn7)C6)C5)nc(OC[C@@]56CCCN5C[C@H](F)C6)nc4c3F)c12", "note": "[Compound A266, 4-(4-(6-(1H-1,2,4-triazole-1-carbonyl)-2,6-diazaspiro[3.5]nonan-2-yl)-6-chloro-8-fluoro-2-(((2R,7aS)-2-fluorotetrahydro-1H-pyrrolizin-7a(5H)-yl)methoxy)quinazolm-7-yl)-2-amino-7-fluorobenzo[b]thiophene-3-carbonitrile]", "values": [{"measurement": "IC50", "setting": "GP2D cells", "value": "1000 to 10000", "unit": "nM"}, {"measurement": "Ratio of IC50 KRAS G12D vs. IC50 KRAS G12S", "setting": "K-Ras G12S", "value": "A (A: indicates that the ratio of IC50 against KrasG12D vs. IC50 against KrasG12S is 1-fold or greater)"}, {"measurement": "% G12S Modification at 24 hr.", "setting": "[1]", "value": "+++ (+++ indicates greater than 20% labelling)"}]}
{"smiles": "C#Cc1c(F)ccc2cccc(-c3ccc4c(N5CCN(C(=O)n6cncn6)CC(F)(F)C5)nc(OC[C@@]56CCCN5C[C@H](F)C6)nc4c3F)c12", "note": "[Compound A107, (4-(7-(8-ethynyl-7-fluoronaphthalen-1-yl)-8-fluoro-2-(((2R,7aS)-2-fluorotetrahydro-1H-pyrrolizin-7 a(5H)-yl)methoxy)quinazolin-4-yl)-6,6-difluoro-1 ,4-diazepan-1-yl)(1H-1,2,4-triazol-1-yl)methanone]", "values": [{"measurement": "IC50", "setting": "GP2D cells", "value": "1000 to 10000", "unit": "nM"}, {"measurement": "Ratio of IC50 KRAS G12D vs. IC50 KRAS G12S", "setting": "K-Ras G12S", "value": "A (A: indicates that the ratio of IC50 against KrasG12D vs. IC50 against KrasG12S is 1-fold or greater)"}, {"measurement": "% G12S Modification at 24 hr.", "setting": "[1]", "value": "++ (++ indicates between about 1%- 20% labelling)"}]}
{"smiles": "CC(=O)c1c(F)ccc2cc(O)cc(-c3ccc4c(N5CCCC6(CN(C(=O)n7cncn7)C6)C5)nc(OC[C@@]56CCCN5C[C@H](F)C6)nc4c3F)c12", "note": "[Compound A154, 1-(8-(4-(2-(1H-1,2,4-triazole-1-carbonyl)-2,6-diazaspiro[3.5]nonan-6-yl)-8-fluoro-2-(((2R,7aS)-2-fluorotetrahydro-1H-pyrrolizin-7a(5H)-yl)methoxy)quinazolin-7-yl)-2-fluoro-6-hydroxynaphthalen-1-yl)ethan-1-one]", "values": [{"measurement": "IC50", "setting": "GP2D cells", "value": "1000 to 10000", "unit": "nM"}, {"measurement": "Ratio of IC50 KRAS G12D vs. IC50 KRAS G12S", "setting": "K-Ras G12S", "value": "A (A: indicates that the ratio of IC50 against KrasG12D vs. IC50 against KrasG12S is 1-fold or greater)"}, {"measurement": "% G12S Modification at 24 hr.", "setting": "[1]", "value": "+++ (+++ indicates greater than 20% labelling)"}]}
{"smiles": "N#Cc1nccn1C(=O)N1CCN(c2nc(OC[C@@]34CCCN3C[C@H](F)C4)nc3c(F)c(-c4ccc(F)c5sc(N)nc45)c(Cl)cc23)CC(F)(F)C1", "note": "[Compound A204, 1-(4-(7-(2-amino-7-fluorobenzo[d]thiazol-4-yl)-6-chloro-8-fluoro-2-(((2R,7aS)-2-fluorotetrahydro-1H-pyrrolizin-7a(5H)-yl)methoxy)quinazolin-4-yl)-6,6-difluoro-1,4-diazepane-1 - carbonyl)-1H-imidazole-2-carbonitrile]", "values": [{"measurement": "IC50", "setting": "GP2D cells", "value": "1000 to 10000", "unit": "nM"}, {"measurement": "Ratio of IC50 KRAS G12D vs. IC50 KRAS G12S", "setting": "K-Ras G12S", "value": "A (A: indicates that the ratio of IC50 against KrasG12D vs. IC50 against KrasG12S is 1-fold or greater)"}, {"measurement": "% G12S Modification at 24 hr.", "setting": "[1]", "value": "++ (++ indicates between about 1%- 20% labelling)"}]}
{"smiles": "Nc1nc2c(-c3c(Cl)cc4c(N5CCOC6(CCN(C(=O)n7cncn7)C6)C5)nc(OC[C@@]56CCCN5C[C@H](F)C6)nc4c3F)ccc(F)c2s1", "note": "(stereo partly drawn) [Compound A221, (9-(7-(2-amino-7-fluorobenzo[d]thiazol-4-yl)-6-chloro-8-fluoro-2-(((2R,7aS)-2-fluorotetrahydro-1H-pyrrolizin-7a(5H)-yl)methoxy)quinazolin-4-yl)-6-oxa-2,9-diazaspiro[4.5]decan-2-yl)(1H-1,2,4-triazol-1-yl)methanone]", "values": [{"measurement": "IC50", "setting": "GP2D cells", "value": "1000 to 10000", "unit": "nM"}, {"measurement": "Ratio of IC50 KRAS G12D vs. IC50 KRAS G12S", "setting": "K-Ras G12S", "value": "A (A: indicates that the ratio of IC50 against KrasG12D vs. IC50 against KrasG12S is 1-fold or greater)"}, {"measurement": "% G12S Modification at 24 hr.", "setting": "[1]", "value": "++ (++ indicates between about 1%- 20% labelling)"}]}
{"smiles": "Nc1nc2c(-c3c(Cl)cc4c(N5CCC56CCCN(C(=O)n5cncn5)CC6)nc(OC[C@@]56CCCN5C[C@H](F)C6)nc4c3F)ccc(F)c2s1", "note": "(stereo partly drawn) [Compound A209, (1-(7-(2-amino-7-fluorobenzo[d]thiazol-4-yl)-6-chloro-8-fluoro-2-(((2R,7aS)-2-fluorotetrahydro-1H-pyrrolizin-7a(5H)-yl)methoxy)quinazolin-4-yl)-1,7-diazaspiro[3.6]decan-7-yl)(1H-1,2,4-triazol-1-yl)methanone]", "values": [{"measurement": "IC50", "setting": "GP2D cells", "value": "1000 to 10000", "unit": "nM"}, {"measurement": "Ratio of IC50 KRAS G12D vs. IC50 KRAS G12S", "setting": "K-Ras G12S", "value": "A (A: indicates that the ratio of IC50 against KrasG12D vs. IC50 against KrasG12S is 1-fold or greater)"}, {"measurement": "% G12S Modification at 24 hr.", "setting": "[1]", "value": "++ (++ indicates between about 1%- 20% labelling)"}]}
{"smiles": "N#C[C@H]1CN(c2nc(OC[C@@]34CCCN3C[C@H](F)C4)nc3c(F)c(-c4ccc(F)c5sc(N)nc45)c(Cl)cc23)CCN1C(=O)n1cncn1", "note": "[Compound A157, (2R)-4-(7-(2-amino-7-fluorobenzo[d]thiazol-4-yl)-6-chloro-8-fluoro-2-(((2R,7aS)-2-fluorotetrahydro-1H-pyrrolizin-7a(5H)-yl)methoxy)quinazolin-4-yl)-1-(1H-1,2,4-triazole-1-carbonyl)piperazine-2-carbonitrile]", "values": [{"measurement": "IC50", "setting": "GP2D cells", "value": "1000 to 10000", "unit": "nM"}, {"measurement": "Ratio of IC50 KRAS G12D vs. IC50 KRAS G12S", "setting": "K-Ras G12S", "value": "A (A: indicates that the ratio of IC50 against KrasG12D vs. IC50 against KrasG12S is 1-fold or greater)"}, {"measurement": "% G12S Modification at 24 hr.", "setting": "[1]", "value": "++ (++ indicates between about 1%- 20% labelling)"}]}
{"smiles": "Nc1nc2c(-c3c(Cl)cc4c(N5CC6CN(C(=O)n7cncn7)CC6C5)nc(OC[C@@]56CCCN5C[C@H](F)C6)nc4c3F)ccc(F)c2s1", "note": "(stereo partly drawn) [Compound A127, (5-(7-(2-amino-7-fluorobenzo[d]thiazol-4-yl)-6-chloro-8-fluoro-2-(((2R,7aS)-2-fluorotetrahydro-1H-pyrrolizin-7a(5H)-yl)methoxy)quinazolin-4-yl)hexahydropyrrolo[3,4-c]pyrrol-2(1H)-yl)(1H-1,2,4-triazol-1-yl)methanone]", "values": [{"measurement": "IC50", "setting": "GP2D cells", "value": "1000 to 10000", "unit": "nM"}, {"measurement": "Ratio of IC50 KRAS G12D vs. IC50 KRAS G12S", "setting": "K-Ras G12S", "value": "A (A: indicates that the ratio of IC50 against KrasG12D vs. IC50 against KrasG12S is 1-fold or greater)"}, {"measurement": "% G12S Modification at 24 hr.", "setting": "[1]", "value": "++ (++ indicates between about 1%- 20% labelling)"}]}
{"smiles": "N#Cc1c(N)sc2c(F)ccc(-c3c(Cl)cc4c(N5CCC6C5CCCN6C(=O)n5cncn5)nc(OC[C@@]56CCCN5C[C@H](F)C6)nc4c3F)c12", "note": "(stereo partly drawn) [Compound A181, 4-(4-(4-(1H-1,2,4-triazole-1-carbonyl)octahydro-1H-pyrrolo[3,2-b]pyridin-1-yl)-6-chloro-8-fluoro-2-(((2R,7aS)-2-fluorotetrahydro-1H-pyrrolizin-7a(5H)-yl)methoxy)quinazolm-7-yl)-2-amino-7-fluorobenzo[b]thiophene-3-carbonitrile]", "values": [{"measurement": "IC50", "setting": "GP2D cells", "value": "≤ 1000", "unit": "nM"}, {"measurement": "Ratio of IC50 KRAS G12D vs. IC50 KRAS G12S", "setting": "K-Ras G12S", "value": "A (A: indicates that the ratio of IC50 against KrasG12D vs. IC50 against KrasG12S is 1-fold or greater)"}, {"measurement": "% G12S Modification at 24 hr.", "setting": "[1]", "value": "+++ (+++ indicates greater than 20% labelling)"}]}
